Source: US20250154597A1, “TRANSCRIPTIONAL REPROGRAMMING DIFFERENTIATES ACTIVE FROM INACTIVE ESR1 FUSIONS IN ENDOCRINE THERAPY-REFRACTORY METASTATIC BREAST CANCER” (Baylor College of Medicine, priority 2021, published 2025)
Blank lines part the entries; values can stand above or below the molecule they belong to.

Columns and labels:
ESR1 fusion protein = assay: Immunoblotting of ESR1 fusion proteins after fulvestrant treatment; format: cell-based; conditions: 100 nM fulvestrant; hormone-deprived stable T47D and MCF7 cells
Description: (§1) Immunoblotting and immunoprecipitation—Cells were harvested and whole cell lysates were prepared in RIPA lysis buffer as described (7) or in MIB lysis buffer (10) supplemented with 1× protease inhibitors and 1× phosphatase inhibitors (Roche) by sonication for 2 minutes. To make ER+ PDX tumor lysates, frozen PDX tumors were cryopulverized with a Covaris CP02 Pulverizer and then protein was extracted in MIB lysis buffer with sonication. Protein concentration determination and SDS-PAGE ([…] protein per lane) were performed as described (7). Immunoblotting of nitrocellulose membranes was performed as described (7). Primary and HRP-conjugated secondary antibodies employed are listed in the Supplementary information.
(§2) To characterize each chimeric ESR1 fusion protein, HA-tagged cDNA constructs were expressed in two ER+ breast cancer cell lines (T47D and MCF7) by lentiviral transduction. Stable cell lines expressing yellow fluorescent protein (YFP) were generated as negative controls. Truncated ESR1 (ESR1-e6 protein) and wild-type ESR1 (ESR1-WT protein) were also stably expressed to provide over-expression controls (FIGS. 2A and 2D). When cells were treated with 100 nM fulvestrant, a selective ERα degrader that inhibits endogenous ERα (21), the level of ESR1 fusion protein was predictably unaffected. […] Cell growth was measured using an alamarBlue assay. […]

WT ERα protein = target: T1, WT ERα protein (Homo sapiens, UniProt P03372); assay: Immunoblotting of endogenous WT ERα after fulvestrant treatment; format: cell-based; conditions: 100 nM fulvestrant; hormone-deprived stable T47D and MCF7 cells
T1 sequence (P03372 1-595): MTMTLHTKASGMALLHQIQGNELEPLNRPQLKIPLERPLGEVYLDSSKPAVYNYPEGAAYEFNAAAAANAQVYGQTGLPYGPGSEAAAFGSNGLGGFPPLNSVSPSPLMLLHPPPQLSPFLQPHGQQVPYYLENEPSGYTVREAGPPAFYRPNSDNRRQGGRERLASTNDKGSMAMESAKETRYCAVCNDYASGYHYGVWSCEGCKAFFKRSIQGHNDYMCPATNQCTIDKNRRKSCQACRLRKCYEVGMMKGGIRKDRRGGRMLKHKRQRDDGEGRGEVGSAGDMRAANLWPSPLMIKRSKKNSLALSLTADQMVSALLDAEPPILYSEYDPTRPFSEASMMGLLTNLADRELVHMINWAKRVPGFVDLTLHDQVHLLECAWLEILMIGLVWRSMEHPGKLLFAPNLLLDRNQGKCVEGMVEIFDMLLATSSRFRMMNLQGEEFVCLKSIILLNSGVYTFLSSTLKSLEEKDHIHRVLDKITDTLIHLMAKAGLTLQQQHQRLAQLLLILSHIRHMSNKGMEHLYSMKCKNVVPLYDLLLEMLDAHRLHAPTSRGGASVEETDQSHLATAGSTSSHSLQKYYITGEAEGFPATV
Description: Immunoblotting and immunoprecipitation—Cells were harvested and whole cell lysates were prepared in RIPA lysis buffer as described (7) or in MIB lysis buffer (10) supplemented with 1× protease inhibitors and 1× phosphatase inhibitors (Roche) by sonication for 2 minutes. […] Protein concentration determination and SDS-PAGE (20 g protein per lane) were performed as described (7). Immunoblotting of nitrocellulose membranes was performed as described (7). Primary and HRP-conjugated secondary antibodies employed are listed in the Supplementary information.

T47D cells = assay: Cell growth, alamarBlue assay; format: cell-based; conditions: 100 nM fulvestrant, 7-10 days
Description: Cell growth, motility and invasion assays—Cell growth assays of different ESR1 fusion protein expressing breast cancer cells that were first hormone-deprived and then subsequently treated either with 100 nM fulvestrant in the presence or absence of 10 nM E2 for 7-10 days were performed in 96-well plates using an alamarBlue™ assay as described (7). Cell growth reading values were normalized to that of control YFP cells, −E2.
as §2, with “unaffected. In comparison, the WT ERα protein was reliably degraded, providing an endogenous control for fulvestrant activity (FIGS. 2A and 2D).” for “unaffected.”

[1] = test system: T47D cells expressing active ESR1 fusion proteins; assay: Expression of estrogen response and EMT-related genes (RT-qPCR, immunoblotting); format: cell-based; conditions: 100 nM fulvestrant; E2-deprived T47D cells
Description: as §1
Reverse transcription-quantitative PCR (RT-qPCR)—RNA was isolated from hormone-deprived stable T47D cells as above with concentration determined using a NanoDrop spectrophotometer. […]
To define the transcriptional profile driven by active ESR1 fusion proteins, RNA-Seq was performed on T47D cells expressing these ESR1 fusion cDNAs as well as control (YFP, ESR1-e6, and ESR1-WT) cells in the presence and absence of E2. […] The expression of three canonical estrogen response genes in stably transfected T47D cells were validated using reverse transcription-quantitative PCR (RT-qPCR). […]

[2] = target: T2, ESR1-e6>SOX9 fusion protein, HA-tagged (UniProt P03372 1-365; P48436 229-509, limits assumed); assay: co-immunoprecipitation: anti-HA IP from hormone-deprived T47D cell lysates with or without 100 nM E2, blot with C-terminal ERα antibody
T2 construct: Stably expressed in T47D cells by lentiviral transduction; not shown: HA tag (constructed in a similar fashion to the C-terminal HA-tagged constructs)
T2 sequence (looked up): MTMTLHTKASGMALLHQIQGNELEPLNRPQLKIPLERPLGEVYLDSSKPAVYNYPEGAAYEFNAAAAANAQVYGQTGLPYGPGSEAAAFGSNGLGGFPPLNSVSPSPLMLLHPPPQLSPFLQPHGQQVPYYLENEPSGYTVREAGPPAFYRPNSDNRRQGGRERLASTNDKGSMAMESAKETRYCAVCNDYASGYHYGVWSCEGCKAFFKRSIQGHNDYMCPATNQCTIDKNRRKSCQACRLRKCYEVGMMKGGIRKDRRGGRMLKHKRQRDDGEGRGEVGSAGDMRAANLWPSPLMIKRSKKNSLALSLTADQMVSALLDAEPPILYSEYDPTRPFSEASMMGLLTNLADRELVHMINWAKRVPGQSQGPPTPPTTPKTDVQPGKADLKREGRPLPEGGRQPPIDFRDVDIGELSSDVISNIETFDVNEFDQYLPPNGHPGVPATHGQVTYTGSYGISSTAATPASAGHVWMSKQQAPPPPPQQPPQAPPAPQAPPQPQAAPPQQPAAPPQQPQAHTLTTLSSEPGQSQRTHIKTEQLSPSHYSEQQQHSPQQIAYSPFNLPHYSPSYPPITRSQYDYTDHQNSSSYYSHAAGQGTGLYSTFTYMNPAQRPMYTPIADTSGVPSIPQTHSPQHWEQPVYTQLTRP

[3] = target: T3, ESR1-e6>PCDH11X fusion protein, C-terminal HA-tagged (UniProt P03372 1-365; Q9BZA7 1013-1347, limits assumed); assay: as above
T3 construct: Stably expressed in T47D cells by lentiviral transduction; not shown: C-terminal HA tag
T3 sequence (looked up): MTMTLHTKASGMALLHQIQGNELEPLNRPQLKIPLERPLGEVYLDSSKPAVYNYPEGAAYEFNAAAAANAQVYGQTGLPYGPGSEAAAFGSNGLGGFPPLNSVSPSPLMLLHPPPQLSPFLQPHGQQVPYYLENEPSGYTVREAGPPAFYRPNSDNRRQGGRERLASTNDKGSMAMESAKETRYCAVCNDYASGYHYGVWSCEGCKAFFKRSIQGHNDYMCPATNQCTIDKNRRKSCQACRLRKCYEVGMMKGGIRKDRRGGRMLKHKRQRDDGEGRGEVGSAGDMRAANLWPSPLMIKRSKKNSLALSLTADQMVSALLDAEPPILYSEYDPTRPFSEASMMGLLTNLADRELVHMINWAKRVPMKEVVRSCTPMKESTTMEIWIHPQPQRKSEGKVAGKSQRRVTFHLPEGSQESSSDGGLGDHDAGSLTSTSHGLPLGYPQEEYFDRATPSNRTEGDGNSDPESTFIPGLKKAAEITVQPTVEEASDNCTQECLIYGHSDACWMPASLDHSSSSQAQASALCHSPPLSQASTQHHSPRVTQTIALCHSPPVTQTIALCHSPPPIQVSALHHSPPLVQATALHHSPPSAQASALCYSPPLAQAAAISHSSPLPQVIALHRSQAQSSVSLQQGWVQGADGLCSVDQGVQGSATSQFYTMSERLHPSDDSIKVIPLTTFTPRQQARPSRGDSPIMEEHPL

[4] = target: T4, ESR1-e6>YAP1 fusion protein, C-terminal HA-tagged (UniProt P03372 1-365; P46937 230-504, limits assumed); assay: as above
T4 construct: Stably expressed in T47D cells by lentiviral transduction; also called ESR1-YAP1; not shown: C-terminal HA tag

level of WT ERα protein (WT ERα protein): degraded
Molecule: C[C@]12CC[C@@H]3c4ccc(O)cc4C[C@@H](CCCCCCCCC[S+]([O-])CCCC(F)(F)C(F)(F)F)[C@H]3[C@@H]1CC[C@@H]2O (stereo partly shown) [fulvestrant]
level of ESR1 fusion protein (ESR1 fusion protein): unaffected
E2-independent growth of T47D cells expressing ESR1-e6>YAP1, >PCDH11X, >SOX9, >ARNT2-e18 (T47D cells): uniformly resistant to fulvestrant
expression of estrogen response and EMT-related genes induced by active ESR1 fusion proteins [1]: unaffected

binding result [2]: no binding
binding result [3]: no binding
binding result [4]: no binding
B1: endogenously expressed ERα (wild-type estrogen receptor alpha, encoded by ESR1) (receptor, UniProt P03372 1-595, looked up)
chain: T1 sequence (P03372 1-595)
notes: also called WT ERα; endogenous ERα
